Patent US20250281498A1, “FUSED AMINO PYRIMIDINE COMPOUNDS FOR TREATMENT OF SYNUCLEINOPATHIES AND TDP-43 PROTEINOPATHIES” (Ovid Therapeutics Inc., priority 2024, published 2025)

Assays:
NKCC1 = target: T1, NKCC1 (Homo sapiens, UniProt P55011); test: TI+ flux assay, HEK-293 cells expressing NKCC1; assay type: cell-based; conditions: read-out: concentration at which effects on NKCC1 were seen (EC50 chart FIG. 1G)
T1 construct: expressed in transfected cells; host or cells: HEK-293
T1 sequence (P55011 1-1212): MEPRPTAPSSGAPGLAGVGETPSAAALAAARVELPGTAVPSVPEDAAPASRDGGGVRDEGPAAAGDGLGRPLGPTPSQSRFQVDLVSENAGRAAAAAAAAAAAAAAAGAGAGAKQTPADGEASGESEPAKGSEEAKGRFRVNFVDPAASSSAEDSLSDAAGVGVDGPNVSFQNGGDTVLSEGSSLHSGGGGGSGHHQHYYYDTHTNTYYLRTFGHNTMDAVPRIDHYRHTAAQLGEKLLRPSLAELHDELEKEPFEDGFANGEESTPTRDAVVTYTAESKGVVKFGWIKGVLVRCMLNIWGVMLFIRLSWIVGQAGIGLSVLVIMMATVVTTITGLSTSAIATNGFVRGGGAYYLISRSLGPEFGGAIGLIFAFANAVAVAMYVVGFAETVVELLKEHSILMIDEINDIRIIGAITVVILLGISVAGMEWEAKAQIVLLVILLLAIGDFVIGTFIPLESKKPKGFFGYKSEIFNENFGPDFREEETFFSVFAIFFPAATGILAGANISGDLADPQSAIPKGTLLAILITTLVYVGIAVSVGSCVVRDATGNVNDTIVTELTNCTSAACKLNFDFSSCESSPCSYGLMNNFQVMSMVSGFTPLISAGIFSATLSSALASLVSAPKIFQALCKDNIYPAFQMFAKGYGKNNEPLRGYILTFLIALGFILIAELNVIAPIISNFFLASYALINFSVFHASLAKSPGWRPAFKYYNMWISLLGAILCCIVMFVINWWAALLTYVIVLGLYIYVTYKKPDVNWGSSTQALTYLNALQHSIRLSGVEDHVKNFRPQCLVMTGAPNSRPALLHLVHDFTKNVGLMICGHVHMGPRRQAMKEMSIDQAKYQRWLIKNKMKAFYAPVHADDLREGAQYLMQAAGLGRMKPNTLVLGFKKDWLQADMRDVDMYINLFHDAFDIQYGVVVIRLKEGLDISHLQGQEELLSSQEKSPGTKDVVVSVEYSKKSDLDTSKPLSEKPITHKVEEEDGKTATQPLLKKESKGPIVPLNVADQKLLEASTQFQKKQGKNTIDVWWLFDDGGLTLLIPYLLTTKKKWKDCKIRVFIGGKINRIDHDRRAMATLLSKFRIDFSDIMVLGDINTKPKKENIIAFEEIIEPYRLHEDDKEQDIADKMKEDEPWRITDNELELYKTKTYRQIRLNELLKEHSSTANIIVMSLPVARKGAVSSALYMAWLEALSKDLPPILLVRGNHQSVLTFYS
Protocol: (§1) FLIPR TI Flux assay. HEK-293 cells were washed with HBSS, and then incubated with loading buffer containing TI sensitive fluorescent dye (https://www.moleculardevices.com), 20 μM bumetanide 20 μM ouabain and 2.5 mM probenecid for 1 h at room temperature (RT) under control conditions or with drugs in the dark using a FlexStation 3 microplate reader (Molecular Devices) and imaged […] for 30 min. Stimulus buffer was added containing 5 mM K^+/0.5 mM Tl^+ and cells were imaged every 1.5 over a 190 second time course The initial rate Tl^+ uptake (Relative Fluorescence Units (RFU) per second) was determined following addition of the stimulus buffer as outlined previously (Conway et al., 2017, supra) (Lee et al., 2022, supra).
(§2) Several studies have shown that the activity and plasma membrane accumulation of KCC2 is potentiated via phosphorylation of S940, a process mediated by the activity of protein kinase C and protein phosphatase 1 (Lee et al., 2011, supra; Lee et al., J Biol Chem 282, 29777-29784 (2007); Moore et al., Proc. Natl. Acad. Sci. U.S.A. 115, 10166-10171 (2018); Moore et al., Trends Neurosci. 40, 555-571 (2017); Silayeva et al., Proc. Natl. Acad. Sci. U.S.A. 112, 3523-3528 (2015)). […] Compared to KCC2, effects on KCC3, KCC4, and NKCC1 were only seen at concentrations more than 35-fold that of KCC2 (>100 μM) (FIG. 1G).

KCC4 = target: T2, KCC4 (Homo sapiens, UniProt Q9Y666); test: TI+ flux assay, HEK-293 cells expressing KCC4; assay type: cell-based; conditions: read-out: concentration at which effects on KCC4 were seen (EC50 chart FIG. 1G)
T2 construct: expressed in transfected cells; host or cells: HEK-293
T2 sequence (Q9Y666 1-1083): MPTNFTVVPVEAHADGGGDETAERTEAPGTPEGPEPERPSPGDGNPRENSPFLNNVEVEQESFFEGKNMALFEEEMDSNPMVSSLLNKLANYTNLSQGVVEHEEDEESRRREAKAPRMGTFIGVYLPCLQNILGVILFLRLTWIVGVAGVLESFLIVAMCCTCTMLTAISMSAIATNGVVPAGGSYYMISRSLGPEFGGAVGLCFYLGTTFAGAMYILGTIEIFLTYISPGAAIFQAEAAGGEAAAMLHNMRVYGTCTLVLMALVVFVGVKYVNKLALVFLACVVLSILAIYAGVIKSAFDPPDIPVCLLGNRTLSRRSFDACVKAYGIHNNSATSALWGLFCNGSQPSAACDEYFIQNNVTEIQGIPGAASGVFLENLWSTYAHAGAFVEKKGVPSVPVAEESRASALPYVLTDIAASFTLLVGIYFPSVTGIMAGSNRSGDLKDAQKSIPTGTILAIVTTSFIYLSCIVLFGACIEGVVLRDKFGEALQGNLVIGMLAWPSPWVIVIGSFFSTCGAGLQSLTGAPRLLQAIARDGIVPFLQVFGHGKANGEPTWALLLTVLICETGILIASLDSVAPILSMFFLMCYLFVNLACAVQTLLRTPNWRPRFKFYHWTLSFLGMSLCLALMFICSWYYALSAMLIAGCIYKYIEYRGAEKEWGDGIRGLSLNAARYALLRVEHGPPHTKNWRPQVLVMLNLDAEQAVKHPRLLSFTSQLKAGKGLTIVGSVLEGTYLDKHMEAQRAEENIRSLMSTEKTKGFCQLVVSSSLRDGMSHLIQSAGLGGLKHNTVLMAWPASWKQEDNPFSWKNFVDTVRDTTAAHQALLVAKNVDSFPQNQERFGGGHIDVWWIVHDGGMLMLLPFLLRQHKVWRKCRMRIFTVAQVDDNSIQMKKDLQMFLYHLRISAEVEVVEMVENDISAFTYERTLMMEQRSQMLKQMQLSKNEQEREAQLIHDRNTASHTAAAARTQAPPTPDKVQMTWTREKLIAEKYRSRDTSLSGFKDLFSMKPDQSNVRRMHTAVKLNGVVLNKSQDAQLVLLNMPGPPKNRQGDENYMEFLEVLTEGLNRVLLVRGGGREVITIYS
Protocol: as §1, §2

C[C@@H]1CN(c2nc3c(c(Nc4ccc(C5CCCCC5)cc4)n2)COC3)CCO1 [Compound A, (R)—N-(4-cyclohexylphenyl)-2-(2-methylmorpholino)-5,7-dihydrofuro[3,4-d]pyrimidin-4-amine] was tested, and the EC50 (NKCC1) was > 100 µM and the EC50 (KCC4) was > 100 µM.
